According to a melting point compilation (Tetko et al.; mined from patent text by program, amines drawn as free bases though some values may be those of a salt):

COc1cc(CCCCC2OC(=O)NC2=O)ccc1OCc1nc(-c2ccccc2)oc1C (configuration not stated) gave a melting point of 135 to 136 °C.
With CCn1ncnc1COc1nn2c(-c3cc(F)ccc3F)nncc2c1C(C)(C)C the melting point was 108 °C.
For CCOC(=O)c1cn(-c2cccc(O)c2)cn1, the melting point was 164 to 165 °C.
Work on O=C1CCC(N2C(=O)c3ccc(CNC(=O)c4ccc5ccccc5n4)cc3C2=O)C(=O)N1 (configuration not stated) yielded a melting point of 205 to 207 °C.
For Cc1ccc2c(c1)N=C(N1CCC(C)CC1)c1cccc3c1N2CC3, the melting point was 194 to 196 °C.
With Cc1ccc(-c2ccc3c(c2)C=C(C(=O)O)CS3)cc1 the melting point was 244 °C.
Compound N#Cc1nn(-c2c(Cl)cc(OC(F)(F)F)cc2Cl)cc1C(Cl)=C(Cl)Br has a melting point of 143 to 144 °C.
With COc1ccn2nc(-c3ccccc3F)c(-c3ccc(=O)n(C)n3)c2c1 the melting point was 220 to 222 °C.
CON(C)C(=O)c1cc(N)c(F)cc1Cl gave a melting point of 118 °C.
In the case of CCCCC(C=O)(CC)CS(=O)(=O)c1ccccc1C(=O)c1ccccc1 (configuration not stated), the melting point is reported as 135 to 136 °C.
For O=Cc1cc2sc3ccccc3c2c2ccccc12, the melting point was 142 to 144 °C.
Work on Cc1nc2c(Cl)cc(F)c(-n3c(=O)cc(C(F)(F)F)n(C)c3=O)c2s1 yielded a melting point of 83 to 85 °C.
Work on COc1ccc(C(=O)Nc2ccccc2)cc1Nc1cccc([N+](=O)[O-])c1 yielded a melting point of 220 to 221 °C.
Compound CCNC(=O)Nc1ccc(C(O)(C(F)(F)F)C(F)(F)F)cc1 has a melting point of 178 to 179 °C.
CCOC(=O)/C=C/c1ccccc1C#N gave a melting point of 60 to 62 °C.
Cc1ccc(-c2cc(=O)c(Br)c(C(=O)O)o2)cc1 gave a melting point of 202 to 204 °C.
For COC(=O)CCCc1cc2nc(Cl)ccc2n1S(=O)(=O)c1ccc(-n2cccn2)cc1, the melting point was 122 to 124 °C.
Work on CC(=O)c1ccc(-c2cccc(C(F)(F)F)c2)o1 yielded a melting point of 105 to 109 °C.
In the case of CN1Cc2c(C=O)ncn2-c2ccccc2C1=O, the melting point is reported as 202 to 203 °C.
With Clc1cc2nc(Br)c(Br)nc2cc1Cl the melting point was 169 to 170 °C.
NS(=O)(=O)c1ccccc1OC(F)(F)C(F)F gave a melting point of 117 to 119 °C.
In the case of COc1ccc(-c2nc(N3CCOCC3)c3sc(NS(=O)(=O)c4cccc(/C=C/C(=O)NO)c4)cc3n2)cn1, the melting point is reported as > 300 °C.
O=S(=O)(c1ccc(Cl)cc1)C(c1cccc(CCc2ccccn2)n1)c1cc(F)ccc1F (configuration not stated) gave a melting point of 88 to 89 °C.
With CC(C)OC(=O)c1cc(-n2c(=O)c3c(n(C)c2=O)CCS3)c(F)cc1Cl the melting point was 156 to 158 °C.
COc1cc2ncnc(Nc3cccc(Br)c3)c2cc1OC(C)=O gave a melting point of 238 °C.
In the case of O=C(c1cc2cc(OCCNC[C@H](O)COc3ccccc3Cl)ccc2o1)N1CCCC1, the melting point is reported as 89 to 90 °C.
In the case of O=C1c2ccccc2C(=O)c2c1nc1ccc(Cl)cn21, the melting point is reported as > 300 °C.
Work on CN(Cc1ccc(Cl)cc1)C(=O)C12CC3CC(CC(C3)C1)C2 yielded a melting point of 65 to 66.5 °C.
O=C(O)[C@@H]1C[C@H](SCc2ccc(C3CCCCC3)cc2)CN1 showed a melting point of 209 to 210 °C.
With CC(C)Cn1c(CNC(=O)OC(C)(C)C)c(-c2ccccc2)c2cc(-c3nc(N)cs3)ccc2c1=O the melting point was 195 to 196 °C.
Compound O=C1c2ccc([N+](=O)[O-])cc2COc2cc(Nc3ccc(F)cc3F)ccc21 has a melting point of 210 to 214 °C.
Compound CCCCCCCCC(CC(=O)Nc1ccccc1)CC(C)[N+](=O)[O-] (configuration not stated) has a melting point of 71 to 72 °C.
O=C1c2ccccc2C(=O)N1OCCN(CCO)CCON1C(=O)c2ccccc2C1=O gave a melting point of 136 to 138 °C.
CCN(C)c1nc2sc3c(NCc4ccncc4)ncnc3c2c2c1CCC(C)(C)C2 showed a melting point of 207 °C.
Work on CCOC(=O)Cc1cnc(-c2cc3cccc(N(C)S(=O)(=O)c4cccs4)c3[nH]2)s1 yielded a melting point of 126 to 127 °C.
In the case of O=C(C=Cc1ccccc1Cl)Nc1cc(Cl)cc(Nc2noc3ccccc23)c1, the melting point is reported as 133 to 135 °C.
CSP(=S)(C1CCCCC1)C1CCCCC1 showed a melting point of 75 to 75.5 °C.
For COc1cccc2c(O)c(CO)cnc12, the melting point was > 350 °C.
Compound COC[C@@H](O)CN1CCC(c2ccc(-c3nc4c(N[C@H]5[C@@H](C(N)=O)[C@@H]6C=C[C@H]5C6)c(Cl)cnc4[nH]3)c(OC)c2)CC1 has a melting point of 189 to 191 °C.
CCC(C(=O)OC)[C@@H](C)O (some centres not stated) showed a melting point of 72.4 to 73.3 °C.
For Cc1noc(NC(=O)C2c3ccccc3Oc3ccccc32)n1, the melting point was 208 °C.
CC(=O)c1ccc(-c2ccc(N(Cc3ccccc3)Cc3ccccc3)cc2)c(C)c1 gave a melting point of 145 to 146 °C.
For COc1ccc2c(c1OC)CCC2c1c[nH]cn1 (configuration not stated), the melting point was 156 to 158 °C.
Compound CCOC(=O)C=Cc1ccc(NC(C)=O)cc1 has a melting point of 126 to 127 °C.
Compound COc1ccc(C=CC(=O)NNC(=O)C=Cc2ccc(OC)cc2)cc1 has a melting point of 288 °C.
With CCOC(=O)CC(=O)C=Cc1ccc([N+](=O)[O-])cc1 the melting point was 116 °C.
Compound O=CC(=Cc1ccccc1F)C(C=O)=Cc1ccccc1F has a melting point of 141 to 142 °C.
In the case of O=C(CNC(=O)c1ccc([N+](=O)[O-])c(I(=O)=O)c1)OCc1ccccc1, the melting point is reported as 196 to 198 °C.
COc1ccc(-n2nc(C(F)F)cc2-c2ccc(S(C)(=O)=O)cc2)cc1Cl gave a melting point of 169 to 171 °C.
Compound COP(=O)(Cc1ccc(NC(=O)/C=C/c2cnn(C)c2-c2ccoc2)cc1)OC has a melting point of 176 to 177 °C.
Cc1ccc(-c2nn3cccnc3c2CC(=O)O)cc1 showed a melting point of 170 to 171 °C.
For O=S(=O)(O)c1ccc(NCc2ccc(Cl)cc2Cl)cc1, the melting point was > 275 °C.
Work on CCC1CC2C3CCc4cc(OC)ccc4C3CCC2(C)C1=O (configuration not stated) yielded a melting point of 93 to 94 °C.
COc1cc(C(=O)N2CCN(C(=O)/C=C/c3cccc(-c4cc(OC)c(OC)c(OC)c4)c3)CC2)cc(OC)c1OC gave a melting point of 149 to 151 °C.
COc1ccc(S(=O)(=O)C(CCCCOc2ccccc2)(Cc2cccnc2)C(=O)O)cc1 (configuration not stated) showed a melting point of 148 to 151 °C.
CCCCCCNCCCS(=O)(=O)O showed a melting point of 144 to 147 °C.
In the case of Cc1cccc(Cl)c1C(=O)N[C@@H](Cc1ccc(NC(=O)c2c(Cl)cccc2Cl)cc1)C(=O)O, the melting point is reported as 212 to 215 °C.
With Cc1cccc2c1nc(COc1ccc(Cl)cc1)n2CCC(C)C(=O)O (configuration not stated) the melting point was 149 to 151 °C.
Work on CC1(C)[C@@H](CS(=O)(=O)c2ccc(S(C)(=O)=O)cc2)CC[C@@]1(C)NCC(=O)N1CCC[C@H]1C#N yielded a melting point of 162 to 166 °C.
O=C(O)[C@@H]1C[C@H]1Sc1nc2ccccc2cc1-c1ccccc1 (relative stereo) gave a melting point of 168 to 170 °C.
For CCc1nc2c(cnn2CC)c(NC2CCOCC2)c1CNC(=O)c1cccc(C(=O)NCc2ccc(Cl)c(-c3cccc(CN4CCN(C)CC4)c3)c2)c1, the melting point was 112 to 114 °C.
For N=C(NCCCn1cc(C2=CC(=O)NC2=O)c2ccccc21)c1ccc(O)cc1, the melting point was > 300 °C.
C=C1SC(=O)N(c2ccc3cc(-c4cc5c(c(-c6ccncc6)c4)OCO5)ccc3c2)C1=O gave a melting point of 304 to 307 °C.
CC(=O)OCC1CCn2c(c(C3=C(c4cn(C)c5ccccc45)C(=O)OC3=O)c3ccccc32)C1 (configuration not stated) showed a melting point of 174 to 178 °C.
Compound O=C(Cc1ccccc1Nc1c(Cl)cccc1Cl)OCCOCCO[N+](=O)[O-] has a melting point of 73 °C.
Work on COc1ccc(-c2c(C(=O)O)c(=O)n(Cc3ccccc3OC)c3c2oc2cc(N)ccc23)cc1 yielded a melting point of 245 °C.
Work on CCCCC(Cc1cc(C(C)(C)C)c(O)c(C(C)(C)C)c1)(C(=O)OC1CC(C)(C)N(OC)C(C)(C)C1)C(=O)OC1CC(C)(C)N(OC)C(C)(C)C1 yielded a melting point of 111 to 113 °C.
With Cc1cccc2nnc(-c3ccccc3)c(O)c12 the melting point was 215 to 217 °C.
For COc1ccc(F)c2c1C=C(C#N)CO2, the melting point was 133 to 135 °C.
With CCC(=CC(CNC(=O)c1sc(C)nc1C)=NO)C(C)[N+](=O)[O-] (configuration not stated) the melting point was 158 to 159 °C.
COc1cccc(N(C(=O)c2ccc(Br)s2)C2CC2)c1 gave a melting point of 60 °C.
COCOCc1nc(N)c2ncc(O)nc2n1 gave a melting point of 210 to 212 °C.
Compound CC(C)CC(C)Oc1c(-c2ccc(S(C)(=O)=O)cc2)cnn(-c2ccc(F)c(F)c2)c1=O (configuration not stated) has a melting point of 132 to 133 °C.
With CN1CCC(C2c3ccccc3C=Cc3ccc(Br)cc32)CC1 (single isomer, unassigned; (+)) the melting point was 178 to 180 °C.
Cc1nc(-n2cnn(Cc3ccc(OC(F)F)cc3)c2=O)sc1C(=O)NCc1cccnc1 showed a melting point of 151 to 152 °C.
With Cc1ccc2ccc3c(c2c1)C(C)(C)C(=O)O3 the melting point was 88 to 89 °C.
Cc1cc(C(=O)N2CCCCC2)ccc1[N+](=O)[O-] showed a melting point of 71.7 to 72.2 °C.
With ON=C1CCSc2sccc21 the melting point was 123 to 124 °C.
Work on O=C1OC(P(=O)(O)C2OC(=O)c3ccccc32)c2ccccc21 (configuration not stated) yielded a melting point of 280 to 285 °C.
Work on CC(Cc1c[nH]c2ccccc12)(NC(=O)OC1C2CC3CC(C2)CC1C3)C(=O)NCCc1nc[nH]n1 (configuration not stated) yielded a melting point of 124 to 128 °C.
S=c1[nH]c2cccc(OCCN3CCc4ccccc4C3)c2[nH]1 gave a melting point of 249 to 250 °C.
For CCN(CC)C(=O)OC12C(=O)c3ccccc3C1(O)Oc1cc(C(C)C)ccc12 (configuration not stated), the melting point was 101 to 104 °C.
Compound CC(CS(=O)(=O)c1ccccc1)C1CCC2C3CC=C4CC(O)CCC4(C)C3CCC12C (configuration not stated) has a melting point of 158 to 161 °C.
Work on CC(C)n1nc(C#Cc2ccccc2)ccc1=O yielded a melting point of 75.5 to 77 °C.
For CC(C)CC(CP(=O)(O)CNCCc1ccccc1)C(=O)N(c1ccc(-c2ccccc2)cc1)[C@@H](C)C(=O)O (some centres not stated), the melting point was 229 to 230 °C.
Compound CC(O)c1cccc(-c2ccc3nc(-c4ccc(Cl)cc4)cn3c2)c1Cl (configuration not stated) has a melting point of 170 to 172 °C.
For O=c1[nH]ccn1-c1ccc(F)cc1F, the melting point was 192 to 194 °C.
Work on Cc1ccc(C(=O)OC2CCN(Cc3ccccc3)CC2)cc1 yielded a melting point of 73 to 74 °C.
C[C@H](NC(=O)Cc1ccccc1)C(=O)N[C@@H]1C(=O)Nc2ccccc2O[C@@H]1c1ccccc1 gave a melting point of 122 to 136 °C.
Compound O=C1NCc2c(cccc2Oc2ccccc2)N1 has a melting point of 278 to 280 °C.
In the case of CCCONNc1nc(C(=O)c2ccccc2O)nc(C(=O)c2ccccc2O)n1, the melting point is reported as 258 to 260 °C.
With CCCCCCOc1ccc(S(=O)(=O)N(CC(=O)NO)CC(C)C)cc1 the melting point was 108 to 110 °C.
Compound CCc1cn2ccccc2c1S(=O)(=O)c1ccc(O)c(C)c1 has a melting point of 214 °C.
Work on Cn1cc(Oc2ccc(Cl)cc2Cl)c(=O)c(-c2cccc(C(F)(F)F)c2)c1 yielded a melting point of 129 to 130 °C.
With CN(C(=O)CN(C(=O)CNC(=O)Nc1cccc(Cc2nnn[nH]2)c1)c1ccccc1)c1ccccc1 the melting point was 206 °C.
O=C1C(=Cc2ccc(Cl)c(Cl)c2)CSCC1=Cc1ccc(Cl)c(Cl)c1 gave a melting point of 151 to 152 °C.
NC(=O)CCc1ccnc(-c2nc(=O)c3ccccc3s2)c1 gave a melting point of 237 to 240 °C.
